Assay results: ChEMBL document CHEMBL1811889, “Quinoline-4-methyl esters as human nonpancreatic secretory phospholipase A₂ inhibitors” (Bioorg Med Chem, 2011)
pIC50: −log10 of the molar value.

Biological target: T1, Phospholipase A2, membrane associated (Homo sapiens, UniProt P14555)
T1 sequence (P14555 whole entry): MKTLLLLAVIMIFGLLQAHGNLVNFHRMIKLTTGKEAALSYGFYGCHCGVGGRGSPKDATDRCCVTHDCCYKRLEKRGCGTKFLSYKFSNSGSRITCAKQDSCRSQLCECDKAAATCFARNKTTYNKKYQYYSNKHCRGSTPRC
Experiment: Inhibition of human non-pancreatic sPLA2 using 1,2-dimyristoyl-sn-glycero-3-phosphocholine substrate after 5 mins by continuous fluorescence assay
Settings: for pIC50: read-out: IC50; call rule not given here

pIC50	IC50	SMILES
5.22		COC(=O)c1cc(-c2ccc(OC)cc2)nc2ccc(F)cc12
4.80		COC(=O)c1c(Cc2ccccc2)c(C)nc2ccc(F)cc12
	Not Active	CCCCCOc1ccc(-c2cc(C(=O)OC)c3cc(OC)ccc3n2)cc1
	Not Active	CCCCCCOc1ccc(-c2cc(C(=O)OC)c3cc(OC)ccc3n2)cc1
4.24		CCCCOc1ccc(-c2cc(C(=O)OC)c3cc(OC)ccc3n2)cc1
4.82		COC(=O)c1cc(-c2ccc(OC)cc2)nc2ccc(OC)cc12
4.47		COC(=O)c1c(Cc2ccccc2)c(C)nc2ccc(OC)cc12
	Not Active	COC(=O)c1c2c(nc3ccc(F)cc13)CCCC2
5.70		COC(=O)c1cc(-c2ccccc2)nc2ccc(OC)cc12
	Not Active	COC(=O)c1c2c(nc3ccccc13)CCCC2
5.54		COC(=O)c1c(-c2ccccc2)c(C)nc2ccc(Cl)cc12
4.92		COC(=O)c1cc(CCc2ccccc2)nc2ccc(F)cc12
4.57		CCCOc1ccc(-c2cc(C(=O)OC)c3cc(OC)ccc3n2)cc1
4.36		CCCCOc1ccc(-c2cc(C(=O)OC)c3ccccc3n2)cc1
5.74		COC(=O)c1cc(CCc2ccccc2)nc2ccc(Cl)cc12
5.09		COC(=O)c1cc(-c2ccc(OC)cc2)nc2ccc(Cl)cc12
	Not Active	COC(=O)c1c2c(nc3ccc(Cl)cc13)CCCC2
6.00		COc1ccc2c(c1)c(CC(N)=O)c(C)n2Cc1ccccc1
5.82		COC(=O)c1cc(CCc2ccccc2)nc2ccc(OC)cc12
5.64		COC(=O)c1cc(Cc2ccccc2OC)nc2ccc(F)cc12
5.55		COC(=O)c1c(Cc2ccccc2)c(C)nc2ccc(Cl)cc12
